A short description of series [1]: Stability to Phase I metabolism in human S9 liver fraction. Format: in vitro ADME. The procedure, abridged:
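Compounds were incubated with rat or human liver S9 fraction at 37 °C for up to 90 min. Reactions were quenched on ice with acidified acetonitrile and analysed by HPLC-UV or LC-MS/MS. Percent remaining versus time zero and intrinsic clearance were calculated.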

Series [2] relates to α-tubulin acetylation in 697 cell line. Description: In vitro α-tubulin acetylation in 697 cell line. Format: cell-based. The settings on record: 16 hours, read-out: Tubulin acetylation (ratio of acetylated tubulin and total tubulin towards control); for fold induction at 0.037 µM: Conc 37 nM; for fold induction at 0.111 µM: Conc 111 nM; for fold induction at 0.333 µM: Conc 333 nM; for fold induction at 1 µM: Conc 1000 nM. As to the method:
(§1) The in vitro α-tubulin and H3 histone acetylation determination was evaluated on B 697 […] cell line.
(§2) The test molecules were diluted from 20 mM stock solution in DMSO with RPMI 10% FCS+0.01% DMSO medium at 20× concentration compared to the final concentration, added to the cells (15×10^6 cells in a total volume of 30 ml in RPMI medium 10% FCS+0.01% DMSO) to obtain the final concentrations of 1000, 333, 111 and 37 nM and incubated at 37° C., 5% CO2 for 16 hours.
At the end of the incubation period, 5×10^6 cells were taken from each sample, centrifuged for 5 minutes at 1100 rpm and washed in 0.9% NaCl at 4° C. The resulting pellet was lysed by treating at 4° C. for 30 minutes with 150 μl of Complete Lysis-M (Roche, cat-04719956051) containing protease inhibitors and phosphatase (Complete Easy Pack proteinase inhibitor cocktail tablets cat: 04693116001, Phostop easypack phosphatase inhibitor cocktails, cat: 01906837001—Roche), then centrifuged 10 minutes at 14,000 rpm (20817×g). 0.150 μg of supernatant (total protein extract) were diluted in 100 μl of 1×PBS and immobilized in Maxisorp F96 NUN-IMMUNO Plate (Nunc cat #5442404) at room temperature overnight. Plates were washed twice with Wash Buffer (PBS1X+0.005% tween 20) and saturated for 1 hour at room temperature with 300 μL of 1×PBS containing 10 FCS. After washing with buffer (1×PBS containing 0.005% tween), the plates were incubated for two hours at room temperature in the presence of anti-acetylated-α-tubulin antibody (Monoclonal Anti-acetylated-tubulin clone 6-11B-1, mouse ascites fluid, cat #T6793 Sigma, 100 μl diluted 1:1000 in 1×PBS containing 10% FCS) or with total anti-α-tubulin antibody (Monoclonal Anti alpha-tubulin produced in mouse, cat #T6074 Sigma). After washing, 100 μl per well of TMB substrate kit was added for 10 minutes at room temperature in the dark. The reaction was stopped by adding 50 μl of 2N H2SO4. The plates were read at Multiskan Spectrum spectrophotometer at a wavelength of 450 nm.
The degree of acetylation was calculated by dividing the absorbance obtained for acetylated α-tubulin by the absorbance of total α-tubulin.
(§3) Test results of tubulin and H3 histone acetylation, expressed as fold increase of ratio of acetylated α-tubulin/total α-tubulin and H3Ac/H3Tot, respectively, of each sample relative to the control sample (untreated) are summarized in Tables 6 and 6′.

Series [3] deals with H3 histone acetylation in 697 cell line. Description: In vitro H3 histone acetylation in 697 cell line. The following applies: 16 h, read-out: Acetylation of H3 histone (fold increase of acetylated H3/total H3 towards control); for fold induction at 1 µM: conc 1000 nM; for fold induction at 0.111 µM: conc 111 nM; for fold induction at 0.333 µM: conc 333 nM. Format: cell-based. Here is the method: as §1, §2
The remaining cells (10×10^6) were treated by acid extraction of histones (Kazuhiro et al., PNAS (2002), 99 (13) 8921-8926). Cells were centrifuged 5 min at 1100 rpm at 4° C. and washed once in 0.9% NaCl. The resulting pellet was lysed with […] (10 mM Tris.HCl, pH 6.5/50 mM sodium bisulphite, 1% Triton X-100/10 mM MgCl2/8.6% saccharose containing the protease inhibitor mixture (Roche)) for 20 min at 4° C. The resulting nucleus pellet was repeatedly washed in buffer until supernatant clarification (centrifuged at 7,500×g, 5 minutes after each wash) and finally washed in nucleus buffer (10 mM Tris.HCl/13 mm EDTA, pH 7, 4) and resuspended in 250 μl of 0.2 M HCl/H2SO4. Histone proteins were extracted in an acidic environment by incubating overnight at 4° C. under gentle shaking. After centrifugation at 14,000 rpm at 4° C. for 10 minutes, 1250 μl of cold acetone was added to the supernatant and incubated overnight at −20° C., resulting in the precipitation of histone proteins. The pellet obtained after centrifugation for 10 minutes at 14000 rpm and 4° C. was washed with cold acetone, evaporated to dryness and resuspended in 50 μl distilled water. The protein content determination of both total and histone extracts was carried out by a colorimetric assay using a BCA Protein Assay Kit (Pierce cat: 23227).
H3 histone acetylation and total H3 amount were quantified by commercial ELISA assays PathScan acetylated histone H3 Sandwich Elisa kit, cat #7232C and PathScan total histone H3 Sandwich Elisa Kit, cat #7253C Cell Signaling) according to supplier reported method and by detecting absorbance at 450 nm wavelength using Multiskan Spectrum. ELISA tests were performed by analysing 0.250 μg and 0.500 μg of histone extract of each sample. The degree of acetylation was calculated by dividing H3 histone absorbance by histone total absorbance.
as §3

For another series, the target named is T1, HDAC8 (Homo sapiens, UniProt Q9BY41).
T1 construct: purchased BPS 50008
T1 sequence (Q9BY41 1-377): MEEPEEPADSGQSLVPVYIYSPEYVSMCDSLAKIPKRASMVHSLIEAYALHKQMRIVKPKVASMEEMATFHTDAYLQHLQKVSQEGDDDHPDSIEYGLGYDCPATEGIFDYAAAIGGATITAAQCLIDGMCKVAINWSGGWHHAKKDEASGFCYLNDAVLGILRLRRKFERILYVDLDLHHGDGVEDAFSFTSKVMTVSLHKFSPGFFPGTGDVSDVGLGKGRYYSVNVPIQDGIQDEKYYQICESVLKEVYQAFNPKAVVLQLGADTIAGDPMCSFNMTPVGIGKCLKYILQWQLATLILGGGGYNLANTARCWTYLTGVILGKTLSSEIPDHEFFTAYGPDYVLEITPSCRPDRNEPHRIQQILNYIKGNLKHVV
Description: Enzymatic test HDAC8. In kind it is biochemical. The settings on record: Table 3.

[4] abbreviates: human liver S9 fraction, after 90 min, 37° C.

Turning to `Nc1ccc(-c2nnn(Cc3c(F)cc(C(=O)NO)cc3F)n2)cc1` [comp. 171, 4-[[5-(4-aminophenyl)tetrazol-2-yl]methyl]-3,5-difluoro-benzenecarbohydroxamic acid], in series [1] (setting [4]), the “residual percentage in human S9 fraction” value is given as 74%. In series [2], the fold induction at 0.037 µM was 10, the fold induction at 0.111 µM was found to be 19, the fold induction at 0.333 µM turned out to be 20 and the fold induction at 1 µM turned out to be 22. In series [3], the fold induction at 1 µM amounted to 3.
In the case of `O=C(NO)c1cc(F)c(Cc2nnc(-c3ccncc3)s2)c(F)c1` [compound 195, 3,5-difluoro-4-[[5-(4-pyridyl)-1,3,4-thiadiazol-2-yl]methyl]benzenecarbohydroxamic acid], the “residual percentage in human S9 fraction” value in series [1] (setting [4]) stood at 68%. Further, in series [2], the fold induction at 0.037 µM stood at 6, the fold induction at 0.111 µM amounted to 11, the fold induction at 0.333 µM worked out at 10 and the fold induction at 1 µM amounted to 14. Also, in series [3], the fold induction at 0.111 µM stood at 1, the fold induction at 0.333 µM is 1 and the fold induction at 1 µM is 1.
As a reminder, the IC50 is the concentration needed to halve the response being measured. A higher IC50 goes with weaker potency. As for `CCN(CC)S(=O)(=O)c1cccc(-c2nnc(Sc3ccc(C(=O)NO)cc3)n2C)c1` [comp. 66, 4-[[5-[3-(diethylsulfamoyl)phenyl]-4-methyl-1,2,4-triazol-3-yl]sulfanyl]benzenecarbohydroxamic acid], on HDAC8, the IC50 was found to be 419 nM.
The same measure, in the same setting: under `Nn1c(Sc2ccc(C(=O)NO)cc2)nnc1-c1ccc(OC(F)F)cc1` [comp. 28, 4-[[4-amino-5-[4-(difluoromethoxy)phenyl]-1,2,4-triazol-3-yl]sulfanyl]benzenecarbohydroxamic acid] stands 270 nM; under `CN(C)c1cccc(-c2nnc(Sc3c(F)cc(C(=O)NO)cc3F)n2C)c1` [comp. 80, 4-[[5-[3-(dimethylamino)phenyl]-4-methyl-1,2,4-triazol-3-yl]sulfanyl]-3,5-difluoro-benzenecarbohydroxamic acid], 548 nM.
As to `Cn1c(Sc2c(F)cc(C(=O)NO)cc2F)nnc1-c1cccc2ccccc12` [comp. 2, 3,5-difluoro-N-hydroxy-4-((4-methyl-5-(naphthalen-1-yl)-4H-1,2,4-triazol-3-yl)thio)benzamide], the “residual percentage in human S9 fraction” value in series [1] (human, 90 min, pH 7.4) is on record as 78%.
For `Cn1c(Sc2c(F)cc(C(=O)NO)cc2F)nnc1-c1cccc(CN2CCCCCC2)c1` [comp. 167, 4-[[5-[3-(azepan-1-ylmethyl)phenyl]-4-methyl-1,2,4-triazol-3-yl]sulfanyl]-3,5-difluoro-benzenecarbohydroxamic acid], the “residual percentage in human S9 fraction” value in series [1] (setting [4]) is listed as 78%. In addition, in series [2], the fold induction at 0.037 µM was found to be 2, the fold induction at 0.111 µM came to 3, the fold induction at 0.333 µM turned out to be 9 and the fold induction at 1 µM was determined as 13. Besides, in series [3], the fold induction at 0.111 µM was 1, the fold induction at 0.333 µM was determined as 1 and the fold induction at 1 µM is 2.
`CN(C)c1cccc(-c2nnc(Sc3ccc(C(=O)NO)cc3)n2C)c1` [comp. 77, 4-[[5-[3-(dimethylamino)phenyl]-4-methyl-1,2,4-triazol-3-yl]sulfanyl]benzenecarbohydroxamic acid] had an IC50 at HDAC8 of 795 nM. This lies in the sub-micromolar range.
On to `CCN(CC)S(=O)(=O)c1cccc(-c2nnc(Sc3ccc(C(=O)NO)cc3)n2N)c1` [comp. 61, 4-[[4-amino-5-[3-(diethylsulfamoyl)phenyl]-1,2,4-triazol-3-yl]sulfanyl]benzenecarbohydroxamic acid], for which the IC50 at HDAC8 worked out at 494 nM. Against the preceding molecule, the IC50 is about 1.6-fold lower.
`Cn1c(Sc2c(F)cc(C(=O)NO)cc2F)nnc1-c1cccnn1` [comp. 179, 3,5-difluoro-4-[(4-methyl-5-pyridazin-3-yl-1,2,4-triazol-3-yl)sulfanyl]benzenecarbohydroxamic acid]: in series [1] (setting [4]), the “residual percentage in human S9 fraction” value came to 79%. Moreover, in series [2], the fold induction at 0.037 µM is 2, the fold induction at 0.111 µM amounted to 7, the fold induction at 0.333 µM turned out to be 6 and the fold induction at 1 µM was found to be 14. In series [3], the fold induction at 1 µM was determined as 1.
On to `Cn1c(Sc2c(F)cc(C(=O)NO)cc2F)nnc1-c1ccc(CN2CCCCCC2)cc1` [comp. 168, 4-[[5-[4-(azepan-1-ylmethyl)phenyl]-4-methyl-1,2,4-triazol-3-yl]sulfanyl]-3,5-difluoro-benzenecarbohydroxamic acid], for which, in series [2], the fold induction at 0.037 µM is 3, the fold induction at 0.111 µM was 11, the fold induction at 0.333 µM was determined as 19 and the fold induction at 1 µM turned out to be 16. Moreover, in series [3], the fold induction at 0.111 µM came to 1, the fold induction at 0.333 µM came out at 1 and the fold induction at 1 µM was 2.
Turning to `Cn1c(Sc2c(F)cc(C(=O)NO)cc2F)nnc1-c1ncccc1F` [comp. 180, 3,5-difluoro-4-[[5-(3-fluoro-2-pyridyl)-4-methyl-1,2,4-triazol-3-yl]sulfanyl]benzenecarbohydroxamic acid], in series [1] (setting [4]), the “residual percentage in human S9 fraction” value was 80%. Besides, in series [2], the fold induction at 0.037 µM amounted to 2, the fold induction at 0.111 µM was 7, the fold induction at 0.333 µM was 15 and the fold induction at 1 µM worked out at 19. Besides, in series [3], the fold induction at 1 µM was 1.
Regarding `O=C(NO)c1cc(F)c(Cn2nnnc2-c2ncccn2)c(F)c1` [comp. 125, 3,5-difluoro-4-[(5-pyrimidin-2-yltetrazol-1-yl)methyl]benzenecarbohydroxamic acid], the “residual percentage in human S9 fraction” value in series [1] (human, 90 min, pH 7.4) stood at 83%. Further, in series [2], the fold induction at 0.037 µM was 1, the fold induction at 0.111 µM was 3, the fold induction at 0.333 µM stood at 6 and the fold induction at 1 µM turned out to be 14. In series [3], the fold induction at 0.111 µM stood at 1, the fold induction at 0.333 µM was 1 and the fold induction at 1 µM was determined as 1.

(Values after US11351178B2, “Selective HDAC6 inhibitors” (ITALFARMACO S.P.A., priority 2017, dated 2022).)
